Laboratory results from PubChem BioAssay (NCI).
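These data come from cells grown in 96-well plates and exposed to compound for 48 hours at five concentrations. TGI is the concentration that stops growth completely.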

Tests used:
Assay in all cases: inhibition of tumour cell growth, NCI panel, 48 h
[1] = test system: 786-0 renal
[2] = test system: A498 renal
[3] = test system: A549 NSCLC
[4] = test system: ACHN renal
[5] = test system: BT-549 breast
[6] = test system: CAKI-1 renal
[7] = test system: CCRF-CEM leukemia
[8] = test system: COLO 205 colon
[9] = test system: EKVX NSCLC
[10] = test system: HCT-116 colon
[11] = test system: HCT-15 colon
[12] = test system: HL-60(TB) leukemia
[13] = test system: HOP-62 NSCLC
[14] = test system: HOP-92 NSCLC
[15] = test system: HS 578T breast
[16] = test system: HT29 colon
[17] = test system: IGROV1 ovarian
[18] = test system: K-562 leukemia
[19] = test system: KM12 colon
[20] = test system: LOX IMVI melanoma
[21] = test system: M14 melanoma
[22] = test system: MALME-3M melanoma
[23] = test system: MCF7 breast
[24] = test system: MDA-MB-231 breast
[25] = test system: MDA-MB-435
[26] = test system: MDA-N
[27] = test system: MOLT-4 leukemia
[28] = test system: NCI-H226 lung
[29] = test system: NCI-H23 lung
[30] = test system: NCI-H460 lung
[31] = test system: NCI-H522 lung
[32] = test system: NCI/ADR-RES ovarian
[33] = test system: OVCAR-3 ovarian
[34] = test system: OVCAR-4 ovarian
[35] = test system: OVCAR-5 ovarian
[36] = test system: OVCAR-8 ovarian
[37] = test system: PC-3 prostate
[38] = test system: RPMI-8226 leukemia
[39] = test system: RXF 393 renal
[40] = test system: SF-268 CNS
[41] = test system: SF-295 CNS
[42] = test system: SF-539 CNS
[43] = test system: SK-MEL-2 melanoma
[44] = test system: SK-MEL-5 melanoma
[45] = test system: SK-OV-3 ovarian
[46] = test system: SNB-19 CNS
[47] = test system: SNB-75 CNS
[48] = test system: SR leukemia
[49] = test system: SW-620 colon
[50] = test system: T-47D breast
[51] = test system: TK-10 renal
[52] = test system: U251 CNS
[53] = test system: UACC-257 melanoma
[54] = test system: UACC-62 melanoma
[55] = test system: UO-31 renal
[56] = test system: DU-145 prostate
[57] = test system: HCC-2998 colon
[58] = test system: SK-MEL-28 melanoma
[59] = test system: SN12C renal

`CN1CCOC1(C)CO` (centres undefined) showed a TGI [1] of over 100 µM, a TGI [2] of over 100 µM and a TGI [3] of over 100 µM. For the same molecule, the TGI [4] was over 100 µM, the TGI [5] was over 100 µM and the TGI [6] was over 100 µM. The TGI [7] was over 100 µM, the TGI [8] was over 100 µM and the TGI [9] was over 100 µM. For the same molecule, the TGI [10] was over 100 µM, the TGI [11] was over 100 µM and the TGI [12] was over 100 µM. The TGI [13] was over 100 µM, the TGI [14] was over 100 µM and the TGI [15] was over 100 µM. The TGI [16] was over 100 µM, the TGI [17] was over 100 µM and the TGI [18] was over 100 µM. The TGI [19] was over 100 µM, the TGI [20] was over 100 µM and the TGI [21] was over 100 µM. For the same molecule, the TGI [22] was over 100 µM, the TGI [23] was over 100 µM and the TGI [24] was over 100 µM. It also gave a TGI [25] of over 100 µM, a TGI [26] of over 100 µM and a TGI [27] of over 100 µM. The TGI [28] was over 100 µM, the TGI [29] was over 100 µM and the TGI [30] was over 100 µM. For the same molecule, the TGI [31] was over 100 µM, the TGI [32] was over 100 µM and the TGI [33] was over 100 µM. For the same molecule, the TGI [34] was over 100 µM, the TGI [35] was over 100 µM and the TGI [36] was over 100 µM. For the same molecule, the TGI [37] was over 100 µM, the TGI [38] was over 100 µM and the TGI [39] was over 100 µM. It also gave a TGI [40] of over 100 µM, a TGI [41] of over 100 µM and a TGI [42] of over 100 µM. For the same molecule, the TGI [43] was over 100 µM, the TGI [44] was over 100 µM and the TGI [45] was over 100 µM. It also gave a TGI [46] of over 100 µM, a TGI [47] of over 100 µM and a TGI [48] of over 100 µM. It also gave a TGI [49] of over 100 µM, a TGI [50] of over 100 µM and a TGI [51] of over 100 µM. The TGI [52] was over 100 µM, the TGI [53] was over 100 µM and the TGI [54] was over 100 µM. For the same molecule, the TGI [55] was over 100 µM.
For `CC(=O)OC1CC2c3cccc4c3C(CC2N(C)C1=O)CN4C(=O)c1ccccc1` (centres undefined), the TGI [1] was 52.2 µM, the TGI [2] was 74.6 µM and the TGI [3] was 37.2 µM. The TGI [4] was 55.5 µM, the TGI [5] was 33.1 µM and the TGI [6] was 54.8 µM. For the same molecule, the TGI [7] was over 100 µM, the TGI [8] was 56.1 µM and the TGI [56] was 42.1 µM. The TGI [9] was 83.1 µM, the TGI [57] was 43.5 µM and the TGI [10] was 32.8 µM. It also gave a TGI [11] of 46.2 µM, a TGI [12] of 44 µM and a TGI [13] of 77.4 µM. It also gave a TGI [14] of 34.8 µM, a TGI [16] of 49.9 µM and a TGI [17] of 43.8 µM. It also gave a TGI [18] of over 100 µM, a TGI [19] of 55.8 µM and a TGI [20] of 25.3 µM. For the same molecule, the TGI [21] was 55.8 µM, the TGI [23] was 62.9 µM and the TGI [24] was 52.4 µM. The TGI [25] was 52.6 µM, the TGI [26] was 77.1 µM and the TGI [27] was over 100 µM. It also gave a TGI [28] of 96.5 µM, a TGI [29] of 55.4 µM and a TGI [31] of 34.4 µM. For the same molecule, the TGI [32] was 45.1 µM, the TGI [33] was 30.1 µM and the TGI [34] was 92.3 µM. The TGI [35] was over 100 µM, the TGI [36] was 48.8 µM and the TGI [37] was 79.6 µM. For the same molecule, the TGI [38] was over 100 µM, the TGI [40] was over 100 µM and the TGI [41] was 69.5 µM. The TGI [42] was 93.9 µM, the TGI [43] was 64.9 µM and the TGI [58] was 77.1 µM. It also gave a TGI [44] of 29.1 µM, a TGI [45] of 80.4 µM and a TGI [59] of 56.8 µM. It also gave a TGI [46] of over 100 µM, a TGI [48] of 94.8 µM and a TGI [49] of over 100 µM. It also gave a TGI [50] of over 100 µM, a TGI [51] of over 100 µM and a TGI [52] of 53.3 µM. For the same molecule, the TGI [53] was 49.9 µM, the TGI [54] was 50.3 µM and the TGI [55] was 42.1 µM.
